Test results taken from US12617757B2, “Compounds and modules for inhibition of pre-miR-21 and their use in treatment of certain cancers” (University of Florida Research Foundation, Incorporated, priority 2019, dated 2026).
Entries after “also recorded” stand apart in the source; their conditions may differ. Like-named read-outs stand apart in the source and are kept apart here.

Tests used:
A549 cells = assay: Boyden chamber invasion assay, A549; type: cell-based; conditions: LNA-21 100 nM, 2 1000 nM
Procedure: (§1) Boyden Chamber Invasion Assay. The MDA-MB-231, MDA-LM2, A375, A549, or MCF-10a cells (5×10^4) were seeded into Hanging Cell Culture Inserts for 24 well plates with uncoated membranes with 8.0 μm pores (Millicell) in serum free growth media. A 3 mg/mL layer (100 μL) of Matrigel (Fisher Scientific: CB40234) diluted with serum free growth media was prepared inside of each membrane. Cells were cultured as described above, with or without compound treatment, and allowed to invade towards complete growth media in the bottom well for 16-24 h before ending the experiment by removing the media in the bottom wells and inserts. The hanging cell culture inserts and bottom wells were washed twice with 1×PBS, gently shaking to mix. Excess liquid and cells inside the insert were removed with cotton swabs, after which 400 μL of 4% paraformaldehyde was placed into the bottom well and incubated for 20 min at room temperature to fix the cells. […] Four different fields of view from each captured image were counted for crystal violet stained or unstained cells. Normalized cells invaded was calculated with equation 5 (Eq 5): […]
(§2) where stained cells represent cells counted with crystal violet stain observed in the compound treated or vehicle treated samples, respectively.

MDA-MB-231 cells = assay: Boyden chamber invasion assay, MDA-MB-231; type: cell-based, human; conditions: for effect on invasion: MDA-MB-231, LNA-21 100 nM, 2 1000 nM; for effect on invasion upon transient expression of pre-miR-21: MDA-MB-231 + pre-miR-21
Procedure: Boyden Chamber Invasion Assay. The MDA-MB-231, MDA-LM2, A375, A549, or MCF-10a cells (5×10^4) were seeded into Hanging Cell Culture Inserts for 24 well plates with uncoated membranes with 8.0 μm pores (Millicell) in serum free growth media. A 3 mg/mL layer (100 μL) of Matrigel (Fisher Scientific: CB40234) diluted with serum free growth media was prepared inside of each membrane. Cells were cultured as described above, with or without compound treatment, and allowed to invade towards complete growth media in the bottom well for 16-24 h before ending the experiment by removing the media in the bottom wells and inserts. The hanging cell culture inserts and bottom wells were washed twice with 1×PBS, gently shaking to mix. Excess liquid and cells inside the insert were removed with cotton swabs, after which 400 μL of 4% paraformaldehyde was placed into the bottom well and incubated for 20 min at room temperature to fix the cells. The wells and inserts were washed twice with 1×PBS and then treated with 400 μL of 0.1% crystal violet solution for 20 min at room temperature to stain the cells. The wells and inserts were washed twice with water, followed by one wash with 1×PBS. Inserts were dried with cotton swabs to remove extra stain and cells inside the insert, then were air-dried, followed by Brightfield microscopic analysis using a Leica DMI3000 B […] fluorescent microscope. Four different fields of view from each captured image were counted for crystal violet stained or unstained cells. Normalized cells invaded was calculated with equation 5 (Eq 5): […]
as §2

A375 cells = assay: Boyden chamber invasion assay, A375; type: cell-based; conditions: LNA-21 100 nM, 2 1000 nM
Procedure: as §1, §2

PDCD4 = PDCD4 Western blot in MDA-MB-231 cells; type: cell-based, human; conditions: for effect on PDCD4 protein levels: Western blotting relative to β-actin
Procedure: PDCD4 Western blot: The MDA-MB-231 cells were grown to ˜60% confluency in 6-well plates. Cells were incubated with compounds diluted in growth media for 48 h. Total protein was extracted using M-PER Mammalian Protein Extraction Reagent (Pierce Biotechnology) supplemented with 1×Protease Inhibitor Cocktail III for Mammalian Cells (Research Products International Corp.) per the manufacturer's protocol. Total protein lysate was quantified using a Micro BCA Protein Assay Kit (Pierce Biotechnology). A 30 μg aliquot of total protein was resolved on a 10% Bis-Tris SDS-polyacrylamide gel, with a 5% stacking layer, and then transferred to a PVDF membrane. The membrane was then blocked in 5% (w/v) nonfat dry milk in 1×TBST for 1 h at room temperature. The membrane was then incubated with 1:2000 rabbit mAb PDCD4 primary antibody (Cell Signaling Technology: D29C6) in 1×TBST containing 5% nonfat dry milk overnight at 4° C. The membrane was washed five times for 5 min each with 1×TBST and then incubated with 1:5000 anti-rabbit IgG horseradish peroxidase secondary antibody conjugate (Cell Signaling Technology: 7074S) in 1×TBST containing 5% nonfat dry milk for 1 h at room temperature. After washing seven times for 5 min each with 1×TBST, protein levels were quantified by chemiluminescence using a SuperSignal West Pico Chemiluminescent Substrate (Pierce Biotechnology) per the manufacturer's recommendations. The membrane was stripped with 1×Stripping Buffer (200 mM glycine, pH 2.2, 1% Tween-20 and 0.1% SDS) two times for 5 min each, followed by washing 3 times in 1×TBST. Then, the membrane was blocked and probed for β-actin following the same procedure described above using 1:5000 mouse β-actin primary antibody (Cell Signaling Technology: 8H10D10). The membrane was washed five times with 1×TBST and incubated with 1:10000 anti-mouse IgG horseradish-peroxidase secondary antibody conjugate (Cell Signaling Technology: 7076S). After washing seven times with 1×TBST for 5 min each, protein levels were quantified as described above. ImageJ software was used to quantify band intensities.

pre-miR-21 = assay: RT-qPCR of mature miR-21 and pre-miR-21 levels in MDA-MB-231 cells; type: cell-based, human; conditions: for period over which significantly decreased miR-21 levels were observed after a single dose: Formula 2 1000 nM, Formula 5 50 nM; for effect on mature miR-21 levels / effect on pre-miR-21 levels: MDA-MB-231, RT-qPCR; for effect on pre-miR-21 upon siRNA ablation of RNase L: 5 at 50 nM
Procedure: Cell culture compound treatment and transfection. For treatment with compounds, stocks in DMSO or water were diluted in growth media and added to cells for 24-72 h. For transfection of plasmid DNA to overexpress the miR-21 hairpin precursor in pcDNA3.1 (Addgene 21114) or pcDNA3-RNaseL (R. H. Silverman, Cleveland Clinic^24) in 24-well plates, Lipofectamine 2000 was used according to the manufacturer's protocol. After transfection, the medium was removed and replaced with growth medium containing compound prepared as described above. For transfection of a control (Santa Cruz Biotechnology: sc-37007) or RNase L targeting siRNA (Santa Cruz Biotechnology: sc-45965), Lipofectamine RNAiMAX Reagent was used for transfection of oligonucleotides, including 2′-5′ A4, according to the manufacturer's protocol.

[1] = test system: miR-21 in various cancer cell lines; assay: RT-qPCR of mature miR-21 in various cancer cell lines; type: cell-based

CCCN(CC(=O)N(CCC)CC(=O)N(CCC)CC(=O)N(CC(N)=O)Cc1cn(CCCNC(=O)CCCOc2ccc(-c3nc4cc(-c5ccc(N6CCN(C)CC6)cc5)ccc4[nH]3)cc2)nn1)C(=O)CNCc1cn(CCCNC(=O)CCCOc2ccc(-c3nc4cc(-c5ccc(N6CCN(C)CC6)cc5)ccc4[nH]3)cc2)nn1 [Compound 2]
effect on invasion (A549 cells): decreased the invasive phenotype | effect on invasion (MDA-MB-231 cells): decreased the invasive phenotype | effect on invasion (MDA-MB-231 cells; listed as Formula 2): inhibited the invasive properties of MDA-MB-231 | effect on invasion (A375 cells): decreased the invasive phenotype | increase of PDCD4 levels (PDCD4; 1 μM, MDA-MB-231): ~50% | effect on PDCD4 protein levels (PDCD4): de-repress levels of PDCD4 protein | period over which significantly decreased miR-21 levels were observed after a single dose (pre-miR-21; MDA-MB-231): 48 h | effect on mature miR-21 levels (pre-miR-21): decreased miR-21 levels; also recorded: decreases mature miR-21 levels | effect on pre-miR-21 levels (pre-miR-21): increased pre-miR-21 levels; also recorded: boosted levels of pre-miR 21 | IC50 (pre-miR-21; MDA-MB-231, read-out: IC50, affecting pre-miR-21 in cells): 1000 nM | effect on mature miR-21 levels [1]: silenced miR-21

CCCN(CC(=O)N(CCC)CC(=O)N(CCC)CC(=O)N(CC(=O)NCCOCCOCCOCCOc1ccc(C=C2SC(Nc3ccccc3)=C(C(=O)OCC)C2=O)cc1O)Cc1cn(CCCNC(=O)CCCOc2ccc(-c3nc4cc(-c5ccc(N6CCN(C)CC6)cc5)ccc4[nH]3)cc2)nn1)C(=O)CN(Cc1cn(CCCNC(=O)CCCOc2ccc(-c3nc4cc(-c5ccc(N6CCN(C)CC6)cc5)ccc4[nH]3)cc2)nn1)C(C)=O [Compound 5]
effect on invasion (A549 cells; listed as Formula 5): decreased invasiveness | effect on invasion upon transient expression of pre-miR-21 (MDA-MB-231 cells): ablated | effect on invasion upon transient expression of pre-miR-21 (MDA-MB-231 cells; listed as Formula 5): ablated the inhibitory effect | effect on invasion (MDA-MB-231 cells): significant decrease of invasion | effect on invasion (MDA-MB-231 cells; listed as Formula 5): effectively inhibited invasion | effect on invasion (A375 cells; listed as Formula 5): decreased invasiveness | effect on PDCD4 protein levels (PDCD4): de-repress levels of PDCD4 protein | effect on pre-miR-21 upon siRNA ablation of RNase L (pre-miR-21; MDA-MB-231): diminished effects | effect on pre-miR-21 upon siRNA ablation of RNase L (pre-miR-21; MDA-MB-231, listed as Formula 5): decreased the ability of Formula 5 to cleave pre-miR-21 | period over which significantly decreased miR-21 levels were observed after a single dose (pre-miR-21; MDA-MB-231): 96 h | enhanced activity for affecting miR-21 levels over parent 2 (pre-miR-21; MDA-MB-231): 20 fold | potency of enzymatic cleavage versus bleomycin conjugate of 2 (pre-miR-21; MDA-MB-231): 10 fold | effect on mature miR-21 levels (pre-miR-21): decreased miR-21 levels | effect on pre-miR-21 levels (pre-miR-21): decreased pre-miR-21 | effect on pre-miR-21 levels (pre-miR-21; listed as Formula 5): diminished | IC50 (pre-miR-21; MDA-MB-231, read-out: IC50, affecting miR-21 levels): ~50 nM | effect on mature miR-21 levels [1]: decreased mature miR-21 levels | effect on mature miR-21 levels ([1]; listed as Formula 5): significantly inhibited miR-21 levels
